Data from patent US9447056B2, “Solid forms of epalrestat” (Bionevia Pharmaceuticals, Inc., priority 2008, dated 2016).

Test: Solid-form stability on compression into a disk (XRPD)
Type: physicochemical
Details: compressed into a disk at 3400 pounds of pressure (117 MPa) for 1 minute, Carver hydraulic press and pellet die
Source text: In various embodiments, the novel betaine cocrystal of epalrestat described herein is stable.

With “betaine hydrogen diepalrestat [betaine hydrogen diacid cocrystal]” the “change in XRPD pattern after compression” value was “no change in the XRPD pattern”.
